Columns and labels:
[1] = biological target: STK11 CAB39 STRADA (human) (UniProt Q9Y376+Q7RTN6+Q15831); assay: radiometric filter-binding kinase assay
CLK2 (human) = CLK2 (human) (UniProt P49760); assay: radiometric filter-binding kinase assay
RIPK2 (human) = RIPK2 (human) (UniProt O43353); assay: radiometric filter-binding kinase assay
MAP2K1 (human) = MAP2K1 (human) (UniProt Q02750); assay: radiometric filter-binding kinase assay
DYRK3 (human) = DYRK3 (human) (UniProt O43781); assay: radiometric filter-binding kinase assay
PIM1 (human) = PIM1 (human) (UniProt P11309); assay: radiometric filter-binding kinase assay
MST4 (human) = MST4 (human) (UniProt Q9P289); assay: radiometric filter-binding kinase assay
LCK (mouse) = assay: radiometric filter-binding kinase assay; conditions: accession and sequence are those of the human protein
YES1 (human) = YES1 (human) (UniProt P07947); assay: radiometric filter-binding kinase assay
MAPK11 (human) = MAPK11 (human) (UniProt Q15759); assay: radiometric filter-binding kinase assay
EPHB4 (human) = EPHB4 (human) (UniProt P54760); assay: radiometric filter-binding kinase assay
MARK3 (human) = MARK3 (human) (UniProt P27448); assay: radiometric filter-binding kinase assay
MYLK (human) = MYLK (human) (UniProt Q15746); assay: radiometric filter-binding kinase assay
HIPK1 (human) = HIPK1 (human) (UniProt Q86Z02); assay: KINOMEscan competition binding; conditions: compound 10.0 µM
[2] = system: KIT (human), P10721 [V559D/V654A]; assay: KINOMEscan competition binding; conditions: compound 10.0 µM
FGFR3 (human) = FGFR3 (human) (UniProt P22607); assay: KINOMEscan competition binding; conditions: compound 10.0 µM
[3] = system: EGFR (human), P00533 [746-750 del]; assay: KINOMEscan competition binding; conditions: compound 10.0 µM
TIE1 (human) = TIE1 (human) (UniProt P35590); assay: KINOMEscan competition binding; conditions: compound 10.0 µM
SYK (human) = SYK (human) (UniProt P43405); assay: KINOMEscan competition binding; conditions: compound 10.0 µM
[4] = system: EGFR (human), P00533 [747-751 del / S ins]; assay: KINOMEscan competition binding; conditions: compound 10.0 µM
[5] = system: RET (human), P07949 [V804L]; assay: KINOMEscan competition binding; conditions: compound 10.0 µM
TAOK1 (human) = TAOK1 (human) (UniProt Q7L7X3); assay: KINOMEscan competition binding; conditions: compound 10.0 µM
INSRR (human) = INSRR (human) (UniProt P14616); assay: KINOMEscan competition binding; conditions: compound 10.0 µM
[6] = system: FLT3 (human), P36888 [ITD]; assay: KINOMEscan competition binding; conditions: compound 10.0 µM
NLK (human) = NLK (human) (UniProt Q9UBE8); assay: KINOMEscan competition binding; conditions: compound 10.0 µM
[7] = system: EGFR (human), P00533 [L861Q]; assay: KINOMEscan competition binding; conditions: compound 10.0 µM
BLK (human) = BLK (human) (UniProt P51451); assay: KINOMEscan competition binding; conditions: compound 10.0 µM
LATS2 (human) = LATS2 (human) (UniProt Q9NRM7); assay: KINOMEscan competition binding; conditions: compound 10.0 µM
FYN (human) = FYN (human) (UniProt P06241); assay: KINOMEscan competition binding; conditions: compound 10.0 µM
CDKL2 (human) = CDKL2 (human) (UniProt Q92772); assay: KINOMEscan competition binding; conditions: compound 10.0 µM
[8] = system: EGFR (human), P00533 [G719C]; assay: KINOMEscan competition binding; conditions: compound 10.0 µM
MAPK8 (human) = MAPK8 (human) (UniProt P45983); assay: KINOMEscan competition binding; conditions: compound 10.0 µM
[9] = system: EGFR (human), P00533 [G719S]; assay: KINOMEscan competition binding; conditions: compound 10.0 µM
DDR2 (human) = DDR2 (human) (UniProt Q16832); assay: KINOMEscan competition binding; conditions: compound 10.0 µM
ALK (human) = ALK (human) (UniProt Q9UM73); assay: KINOMEscan competition binding; conditions: compound 10.0 µM

Chain of RIPK2 (human) (O43353 whole entry, looked up): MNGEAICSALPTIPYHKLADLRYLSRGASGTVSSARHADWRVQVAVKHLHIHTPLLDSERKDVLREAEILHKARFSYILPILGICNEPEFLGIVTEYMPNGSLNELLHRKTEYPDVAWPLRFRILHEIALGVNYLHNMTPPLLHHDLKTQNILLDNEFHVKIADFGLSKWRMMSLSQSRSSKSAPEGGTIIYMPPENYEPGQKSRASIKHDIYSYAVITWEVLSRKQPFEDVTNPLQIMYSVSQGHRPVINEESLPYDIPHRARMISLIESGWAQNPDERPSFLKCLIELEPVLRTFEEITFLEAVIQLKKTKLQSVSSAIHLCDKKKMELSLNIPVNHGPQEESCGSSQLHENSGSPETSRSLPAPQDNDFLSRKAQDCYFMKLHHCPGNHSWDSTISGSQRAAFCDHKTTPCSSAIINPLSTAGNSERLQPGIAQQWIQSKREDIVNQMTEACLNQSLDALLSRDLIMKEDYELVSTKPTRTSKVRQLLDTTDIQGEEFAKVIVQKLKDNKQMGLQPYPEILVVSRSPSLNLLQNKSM
Chain of MAPK11 (human) (Q15759 whole entry, looked up): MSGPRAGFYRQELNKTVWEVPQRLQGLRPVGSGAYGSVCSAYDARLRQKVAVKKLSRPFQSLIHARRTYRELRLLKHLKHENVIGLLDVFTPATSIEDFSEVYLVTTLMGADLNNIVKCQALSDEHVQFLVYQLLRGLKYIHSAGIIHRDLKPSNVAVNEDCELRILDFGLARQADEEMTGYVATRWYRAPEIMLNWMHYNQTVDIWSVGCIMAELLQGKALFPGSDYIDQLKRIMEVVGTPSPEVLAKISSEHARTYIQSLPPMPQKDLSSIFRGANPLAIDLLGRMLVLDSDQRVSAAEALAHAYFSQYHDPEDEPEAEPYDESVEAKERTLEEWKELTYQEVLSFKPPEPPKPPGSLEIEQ
Chain of PIM1 (human) (P11309 whole entry, looked up): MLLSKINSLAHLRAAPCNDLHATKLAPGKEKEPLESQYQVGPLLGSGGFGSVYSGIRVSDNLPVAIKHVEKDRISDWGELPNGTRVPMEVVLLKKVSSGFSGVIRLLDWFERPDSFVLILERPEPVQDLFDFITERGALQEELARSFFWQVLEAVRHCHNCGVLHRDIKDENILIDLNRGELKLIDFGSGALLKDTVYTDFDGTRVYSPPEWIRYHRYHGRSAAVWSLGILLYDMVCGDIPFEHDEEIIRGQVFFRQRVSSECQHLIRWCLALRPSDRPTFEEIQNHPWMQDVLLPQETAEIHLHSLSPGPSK
Chain of MST4 (human) (Q9P289 whole entry, looked up): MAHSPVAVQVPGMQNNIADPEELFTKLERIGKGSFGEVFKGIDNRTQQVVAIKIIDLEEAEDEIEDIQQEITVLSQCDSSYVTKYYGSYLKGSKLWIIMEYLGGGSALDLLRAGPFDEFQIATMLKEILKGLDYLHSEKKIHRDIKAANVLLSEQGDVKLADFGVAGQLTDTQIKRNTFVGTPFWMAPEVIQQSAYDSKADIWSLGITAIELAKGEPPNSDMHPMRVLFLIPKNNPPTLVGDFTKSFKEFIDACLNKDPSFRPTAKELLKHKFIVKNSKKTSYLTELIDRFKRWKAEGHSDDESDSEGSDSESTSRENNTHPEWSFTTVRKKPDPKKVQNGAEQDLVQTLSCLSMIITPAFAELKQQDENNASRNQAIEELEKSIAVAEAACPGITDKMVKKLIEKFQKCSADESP
Chain of STK11 CAB39 STRADA (human) (Q15831 whole entry, looked up): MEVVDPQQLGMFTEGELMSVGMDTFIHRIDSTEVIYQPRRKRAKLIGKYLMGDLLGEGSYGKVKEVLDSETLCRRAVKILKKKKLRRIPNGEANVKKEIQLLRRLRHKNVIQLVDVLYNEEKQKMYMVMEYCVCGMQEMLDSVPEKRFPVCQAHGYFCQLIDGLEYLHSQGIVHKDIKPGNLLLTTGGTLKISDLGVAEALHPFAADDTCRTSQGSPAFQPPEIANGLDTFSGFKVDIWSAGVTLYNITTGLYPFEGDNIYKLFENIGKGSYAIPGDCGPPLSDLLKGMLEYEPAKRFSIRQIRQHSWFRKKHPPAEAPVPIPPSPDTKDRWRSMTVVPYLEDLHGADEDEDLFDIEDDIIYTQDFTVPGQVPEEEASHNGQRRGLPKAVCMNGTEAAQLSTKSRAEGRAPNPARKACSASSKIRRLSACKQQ
Chain of STK11 CAB39 STRADA (human) (Q7RTN6 whole entry, looked up): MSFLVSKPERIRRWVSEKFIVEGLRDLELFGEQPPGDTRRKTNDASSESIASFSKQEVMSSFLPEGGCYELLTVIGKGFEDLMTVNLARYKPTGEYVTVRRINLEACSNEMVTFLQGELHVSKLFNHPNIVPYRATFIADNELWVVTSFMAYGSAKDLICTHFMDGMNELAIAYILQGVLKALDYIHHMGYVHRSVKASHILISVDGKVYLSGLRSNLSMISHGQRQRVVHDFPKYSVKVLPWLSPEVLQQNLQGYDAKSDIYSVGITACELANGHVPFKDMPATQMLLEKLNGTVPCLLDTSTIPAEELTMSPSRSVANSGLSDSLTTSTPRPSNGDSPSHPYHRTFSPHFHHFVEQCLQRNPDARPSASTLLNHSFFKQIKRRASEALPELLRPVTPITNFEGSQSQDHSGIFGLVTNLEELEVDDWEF
Chain of STK11 CAB39 STRADA (human) (Q9Y376 whole entry, looked up): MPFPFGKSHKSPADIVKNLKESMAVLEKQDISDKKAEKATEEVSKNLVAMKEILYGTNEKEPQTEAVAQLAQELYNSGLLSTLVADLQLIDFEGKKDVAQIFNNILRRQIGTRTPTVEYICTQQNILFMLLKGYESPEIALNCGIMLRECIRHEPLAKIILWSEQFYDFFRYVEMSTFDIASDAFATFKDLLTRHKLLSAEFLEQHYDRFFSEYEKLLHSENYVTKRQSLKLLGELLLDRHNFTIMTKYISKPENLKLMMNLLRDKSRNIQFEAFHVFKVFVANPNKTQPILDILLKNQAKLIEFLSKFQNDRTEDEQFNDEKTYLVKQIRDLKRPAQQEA
Chain of MAP2K1 (human) (Q02750 whole entry, looked up): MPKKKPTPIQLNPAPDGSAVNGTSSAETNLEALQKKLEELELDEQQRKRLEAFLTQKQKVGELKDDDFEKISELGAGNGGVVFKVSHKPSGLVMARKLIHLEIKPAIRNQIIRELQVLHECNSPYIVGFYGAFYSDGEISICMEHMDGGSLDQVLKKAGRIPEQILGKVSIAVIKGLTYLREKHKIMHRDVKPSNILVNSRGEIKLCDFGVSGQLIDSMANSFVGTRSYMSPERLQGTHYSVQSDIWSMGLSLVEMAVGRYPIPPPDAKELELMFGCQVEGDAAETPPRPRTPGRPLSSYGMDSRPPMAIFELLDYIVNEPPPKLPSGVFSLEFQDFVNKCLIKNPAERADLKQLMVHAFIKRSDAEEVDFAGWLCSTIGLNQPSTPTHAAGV
Chain of MARK3 (human) (P27448 whole entry, looked up): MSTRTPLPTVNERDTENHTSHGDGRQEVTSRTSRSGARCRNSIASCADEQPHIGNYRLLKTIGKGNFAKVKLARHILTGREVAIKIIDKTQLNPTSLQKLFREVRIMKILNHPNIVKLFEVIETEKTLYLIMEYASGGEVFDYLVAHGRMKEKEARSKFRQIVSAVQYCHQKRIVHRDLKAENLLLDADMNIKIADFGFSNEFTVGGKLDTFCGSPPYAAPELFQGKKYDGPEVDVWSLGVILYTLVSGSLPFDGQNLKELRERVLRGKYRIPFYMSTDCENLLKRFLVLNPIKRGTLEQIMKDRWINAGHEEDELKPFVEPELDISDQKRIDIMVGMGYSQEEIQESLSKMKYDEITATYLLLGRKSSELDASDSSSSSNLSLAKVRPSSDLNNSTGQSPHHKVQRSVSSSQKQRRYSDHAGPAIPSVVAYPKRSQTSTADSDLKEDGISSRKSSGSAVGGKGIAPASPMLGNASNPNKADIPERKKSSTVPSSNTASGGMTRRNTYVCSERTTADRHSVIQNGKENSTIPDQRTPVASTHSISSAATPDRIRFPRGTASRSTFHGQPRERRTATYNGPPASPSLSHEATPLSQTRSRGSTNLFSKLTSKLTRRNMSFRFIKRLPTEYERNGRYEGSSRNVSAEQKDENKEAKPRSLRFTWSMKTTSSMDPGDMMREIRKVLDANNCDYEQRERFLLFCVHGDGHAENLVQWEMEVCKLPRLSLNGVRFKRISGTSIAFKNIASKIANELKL
Chain of EPHB4 (human) (P54760 whole entry, looked up): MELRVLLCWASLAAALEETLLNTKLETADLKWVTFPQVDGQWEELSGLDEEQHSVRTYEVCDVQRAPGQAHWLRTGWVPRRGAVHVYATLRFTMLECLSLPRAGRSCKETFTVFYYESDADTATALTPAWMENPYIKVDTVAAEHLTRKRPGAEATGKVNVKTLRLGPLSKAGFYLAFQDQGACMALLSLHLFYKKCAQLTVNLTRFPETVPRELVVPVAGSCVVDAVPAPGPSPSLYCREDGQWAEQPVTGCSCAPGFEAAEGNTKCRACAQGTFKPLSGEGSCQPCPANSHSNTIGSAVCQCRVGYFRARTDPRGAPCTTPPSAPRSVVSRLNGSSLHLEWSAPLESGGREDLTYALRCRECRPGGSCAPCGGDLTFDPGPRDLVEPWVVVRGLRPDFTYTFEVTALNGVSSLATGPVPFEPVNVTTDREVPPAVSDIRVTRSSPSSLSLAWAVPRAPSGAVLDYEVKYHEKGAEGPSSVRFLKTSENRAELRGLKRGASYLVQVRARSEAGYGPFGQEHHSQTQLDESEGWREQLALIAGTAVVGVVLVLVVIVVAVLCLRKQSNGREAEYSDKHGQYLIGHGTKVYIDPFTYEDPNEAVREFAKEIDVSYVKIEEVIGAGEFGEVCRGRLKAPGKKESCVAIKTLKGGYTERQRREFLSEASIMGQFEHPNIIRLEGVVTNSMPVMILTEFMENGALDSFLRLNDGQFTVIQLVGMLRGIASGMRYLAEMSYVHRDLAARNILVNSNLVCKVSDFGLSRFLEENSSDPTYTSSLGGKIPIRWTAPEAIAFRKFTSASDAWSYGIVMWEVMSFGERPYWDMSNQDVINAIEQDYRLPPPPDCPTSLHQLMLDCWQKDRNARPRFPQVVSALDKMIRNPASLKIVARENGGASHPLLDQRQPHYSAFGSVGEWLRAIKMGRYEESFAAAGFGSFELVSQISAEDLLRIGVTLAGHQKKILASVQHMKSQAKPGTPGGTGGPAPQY

- residual activity ([1]; compound 0.1 µM): 117%
- residual activity ([1]; compound 1.0 µM): 107%
- residual activity ([1]; compound 10.0 µM): 129%
- residual activity (CLK2 (human); compound 0.1 µM): 115%
- residual activity (CLK2 (human); compound 1.0 µM): 104%
- residual activity (CLK2 (human); compound 10.0 µM): 75.8%
- residual activity (RIPK2 (human); compound 0.1 µM): 103%
- residual activity (RIPK2 (human); compound 1.0 µM): 78.9%
- residual activity (RIPK2 (human); compound 10.0 µM): 13.5%
- residual activity (MAP2K1 (human); compound 0.1 µM): 106%
- residual activity (MAP2K1 (human); compound 1.0 µM): 108%
- residual activity (MAP2K1 (human); compound 10.0 µM): 93.2%
- residual activity (DYRK3 (human); compound 0.1 µM): 96.5%
- residual activity (DYRK3 (human); compound 1.0 µM): 86.3%
- residual activity (DYRK3 (human); compound 10.0 µM): 82%
- residual activity (PIM1 (human); compound 0.1 µM): 120%
- residual activity (PIM1 (human); compound 1.0 µM): 117%
- residual activity (PIM1 (human); compound 10.0 µM): 87.4%
- residual activity (MST4 (human); compound 0.1 µM): 95%
- residual activity (MST4 (human); compound 1.0 µM): 78%
- residual activity (MST4 (human); compound 10.0 µM): 32.1%
- residual activity (LCK (mouse); compound 0.1 µM): 12.7%
- residual activity (LCK (mouse); compound 1.0 µM): 0.851%
- residual activity (LCK (mouse); compound 10.0 µM): 5.77%
- residual activity (YES1 (human); compound 0.1 µM): 52.9%
- residual activity (YES1 (human); compound 1.0 µM): 9.77%
- residual activity (YES1 (human); compound 10.0 µM): 10.6%
- residual activity (MAPK11 (human); compound 0.1 µM): 74.9%
- residual activity (MAPK11 (human); compound 1.0 µM): 16.6%
- residual activity (MAPK11 (human); compound 10.0 µM): 9.04%
- residual activity (EPHB4 (human); compound 0.1 µM): 97.3%
- residual activity (EPHB4 (human); compound 1.0 µM): 92.6%
- residual activity (EPHB4 (human); compound 10.0 µM): 42.7%
- residual activity (MARK3 (human); compound 0.1 µM): 112%
- residual activity (MARK3 (human); compound 1.0 µM): 99.5%
- residual activity (MARK3 (human); compound 10.0 µM): 105%
- residual activity (MYLK (human); compound 0.1 µM): 109%
- residual activity (MYLK (human); compound 1.0 µM): 89.4%
- residual activity (MYLK (human); compound 10.0 µM): 76.7%
- kinase still bound, per cent of control (HIPK1 (human)): 6.2%
- kinase still bound, per cent of control [2]: 2.7%
- kinase still bound, per cent of control (FGFR3 (human)): 9.4%
- kinase still bound, per cent of control [3]: 8.4%
- kinase still bound, per cent of control (TIE1 (human)): 0.95%
- kinase still bound, per cent of control (SYK (human)): 6.2%
- kinase still bound, per cent of control [4]: 1.1%
- kinase still bound, per cent of control [5]: 0.8%
- kinase still bound, per cent of control (TAOK1 (human)): 3%
- kinase still bound, per cent of control (INSRR (human)): 23%
- kinase still bound, per cent of control [6]: 0.7%
- kinase still bound, per cent of control (NLK (human)): 14%
- kinase still bound, per cent of control [7]: 15%
- kinase still bound, per cent of control (BLK (human)): 0.45%
- kinase still bound, per cent of control (LATS2 (human)): 13%
- kinase still bound, per cent of control (FYN (human)): 1.6%
- residual activity (CDKL2 (human)): 0.9%
- kinase still bound, per cent of control [8]: 12%
- kinase still bound, per cent of control (MAPK8 (human)): 0%
- kinase still bound, per cent of control [9]: 14%
- kinase still bound, per cent of control (DDR2 (human)): 5.1%
- kinase still bound, per cent of control (ALK (human)): 0.55%
SMILES: CCN1CCN(Cc2ccc(NC(=O)c3ccc(C)c(Oc4ccnc5[nH]ccc45)c3)cc2C(F)(F)F)CC1
